# What was measured:
# T84 [1] = assay: MTS assay, cytotoxicity on colorectal cancer cell line T84; type: cell-based; settings: Homo sapiens, RON Δ165, KRAS G13D, 72 hours
# Procedure: (§1) MTS assay was performed to compare cytotoxicity of the compounds of Example 1, Example 2, Example 3, Example 4, Example 5, Example 6, and positive control 1 on a colorectal cancer cell line, and a cell death rate of the colorectal cancer cell line was analyzed to compare anticancer activity of the compounds.
# (§2) The MTS assay was performed by seeding each colorectal cell line in a 96-well plate at 1,000 cells per well, and after 24 hours, performing treatment with the compounds of Examples 1 to 6 and positive control 1 at various concentrations (0.000001 μM to 10 μM) in 100 μL of 10% FBS-RPMI medium (WELGENE Inc.) per well. The cells were incubated for 72 hours. Then, 20 μL of MTS solution (Promega) was added thereto, and the cells were incubated for 2 hours. Then, the absorbance was measured at 490 nm. The IC50 values for the compounds of Examples 1 to 6 and positive control 1 were calculated using GraphPad Prism™ 5 to investigate cytotoxicity.
# [2] = test system: HCT8 (KRAS G13D/pTyr-wtRON(+)); assay: Cell line HCT8-transplanted mouse model; type: in vivo, BALB/c nude mice
# Procedure: (§3) 5-Week-old female BALB/c nude mice were purchased and acclimatized for 1 week. Then, human colorectal cancer patient-derived cell line SW620 (KRAS
# (§4) G12V/mRON Δ155) at 5×10^6 cells/mouse was injected subcutaneously (100 μL) into the right dorsal side of the mice. The compound of Example 1 was orally administered when the tumor reached a size of about 100 mm^3. The drug was administered once a day for 4 weeks, and tumor size and mouse body weight were measured twice a week. After completion of the drug administration, the experimental animals were euthanized, and then the tumors were extracted and weighed for comparative analysis.
# (§5) A portion of the extracted tumor tissue was fixed in 10% formalin and processed into a paraffin block. Then, the block was made into sections. Staining of the slide was performed through immunochemical staining. Another portion of the extracted tumor tissue was subjected to lysis, and then Western blotting was used to identify changes in expression of respective proteins.
# The experiment was conducted in the same method as the procedure of Experimental Example 3, except that human colorectal cancer patient-derived cell line HCT8 (KRAS G13D/pTyr-wtRON(+)) was used in place of the human colorectal cancer patient-derived cell line SW620 (KRAS G12V/mRON Δ155), and the respective compounds of Example 1, positive control 1, and positive control 2 were administered.
# SW480 = assay: MTS assay, cytotoxicity on colorectal cancer cell line SW480; type: cell-based; settings: Homo sapiens, RON Δ155, KRAS G12V, 72 hours
# Procedure: as §1, §2
# [3] = test system: SW620 (KRAS G12V/mRON Δ155); assay: Mechanism of action in SW620 overexpressing β-catenin (trypan blue exclusion, Western blotting); type: cell-based, human
# Procedure: Each of an empty vector and human beta-catenin pcDNA3.1 (Plasmid #16828, Addgene) that is a vector into which β-catenin DNA (X87838.1, GENE ID: 1499) is introduced, was transfected into the human colorectal cancer patient-derived cell line SW620 (KRAS G12V/mRON […]), and then treatment with the compound of Example 1 was performed. Subsequently, all cells were collected when 48 hours had elapsed. Cell death induction efficacy was compared and analyzed using a trypan blue exclusion assay. As described above, the cell line SW620 was caused to overexpress β-catenin. Then, treatment with the compound of Example 1 was performed, and cell death induction efficacy was observed. In addition, as described above, the cell line SW 620 was caused to overexpress β-catenin. Then, the sample treated with the compound of Example 1 was used to identify expressions of β-catenin, p-ERK, ERK, c-myc, cyclin D1, pTyr-mRON, mRON, and cleaved caspase 3 with Western blotting.
# T84 [4] = assay: Cell death induction, trypan blue cell counting, T84; type: cell-based; settings: T84 with a RON mutation; 1 μM; 48 hours; FIG. 1
# Procedure: (§6) Based on the results above, to identify the cell death-inducing ability of the compounds of Example 1 and positive control 1, which are representative materials, preparation was performed by seeding respective colorectal cancer cell lines SNU-[…], HCT8, T84, and SW620 onto 60-mm plates at 3×10^5 cells, and then incubation was performed for 24 hours. Thereafter, treatment with each of Example 1 and positive control 1 was performed at 1μM and incubation was performed for 48 hours. After 48 hours, the cells and cell suspensions were collected by treatment with trypsin, resuspended in 1× PBS and stained using a trypan blue solution (Sigma, cat# T8154). The stained cells were counted using a hemocytometer. Cell counting was repeated, and the mean and the standard deviation were calculated.
# HCT15 = assay: MTS assay, cytotoxicity on colorectal cancer cell line HCT15; type: cell-based; settings: Homo sapiens, HCT-15, RON Δ160, KRAS G13D, 72 hours
# Procedure: as §1, §2
# [5] = test system: HCT15 (KRAS G13D/mRON Δ160); assay: Cell line HCT15-transplanted mouse model; type: in vivo, BALB/c nude mice
# Procedure: 5-Week-old female BALB/c nude mice were purchased and acclimatized for 1 week. Then, human colorectal cancer patient-derived cell line HCT15 (KRAS G13D/mRON Δ160) at 5×10^6 cells/mouse was injected subcutaneously (100 μL) into the right dorsal side of the mice. The compound of Example 1 was orally administered when the tumor reached a size of about 100 mm^3 The drug was administered once a day for 4 weeks, and tumor size and mouse body weight were measured twice a week.
# After completion of the drug administration, the tumor tissues were analyzed.
# [6] = test system: SW620 (KRAS G12V/mRON Δ155); assay: Cell line SW620-transplanted mouse model; type: in vivo, BALB/c nude mice
# Procedure: as §3, §4, §5
# SNU-C2A = assay: Cell death induction, trypan blue cell counting, SNU-C2A; type: cell-based; settings: SNUC2A with inactive RON; 1 μM; 48 hours; FIG. 1
# Procedure: as §6
# SW620 = assay: MTS assay, cytotoxicity on colorectal cancer cell line SW620; type: cell-based; settings: Homo sapiens, SW-620, RON Δ155, KRAS G12V, 72 hours
# Procedure: as §1, §2
# [7] = immunochemical staining, FIG. 7
smiles,measurement,setting,value
"CCOc1ccn(-c2ccc(F)cc2)c(=O)c1C(=O)Nc1ccc(Oc2ccnc3cc(-c4ccc(CN5CCOCC5)cn4)sc23)c(F)c1.Cl [Example 1, 4-ethoxy-N-[3-fluoro-4-({2-[5-(morpholinomethyl)pyridine-2-yl]thieno[3,2-b]pyridine-7-yl}oxy)phenyl]-1-(4-fluorophenyl)-2-oxo-1,2-dihydropyridine-3-carboxamide hydrochloride]",IC50,T84 [1],350 nM
same,"Tumor growth inhibition (TGI, %)","[2]; 10 mg/kg, oral, once a day for 4 weeks",58.5 ± 9.1%
same,tumor growth inhibitory efficacy,"[2]; compared with positive control 1 and positive control 2, FIG. 8",high tumor growth inhibitory efficacy
same,IC50,SW480,340 nM
same,expression of pTyr-mRON,"[3]; SW620, empty vector or β-catenin overexpressed, Western blotting, FIG. 11",decreased by the compound of Example 1 regardless of β-catenin
same,cell death induction efficacy,"[3]; SW620 overexpressing β-catenin, 48 hours, trypan blue exclusion, FIG. 10",cell death induction efficacy of the compound was decreased
same,"expression of p-ERK, c-myc, and cyclin D1","[3]; SW620 transfected with the empty vector, Western blotting, FIG. 11",decreased
same,"expression of p-ERK, c-myc, and cyclin D1","[3]; SW620 with β-catenin overexpressed, Western blotting, FIG. 11",increased again
same,cell death induction efficacy,T84 [4],cell death induction efficacy was exhibited regardless of mutation type
same,IC50,HCT15,230 nM
same,expression of cleaved caspase 3 in tumor tissue,[5]; FIG. 13,induced expression
same,expression of cyclin D1 (PD marker) in tumor tissue,[5]; FIG. 13,decreased expression
same,expression of pTyr-mRON in tumor tissue,[5]; FIG. 13,decreased expression
same,tumor growth inhibitory efficacy,"[5]; oral, once a day for 4 weeks, FIG. 12",high tumor growth inhibitory efficacy
same,"Tumor growth inhibition (TGI, %)","[6]; 30 mg/kg, oral, once a day for 4 weeks",79.2 ± 2.2%
same,expression of cleaved caspase 3 in tumor tissue,[6]; [7],induced expression
same,expression of cyclin D1 (PD marker) in tumor tissue,[6]; [7],decreased expression
same,expression of pTyr-RON in tumor tissue,[6]; [7],decreased expression
same,tumor growth inhibitory efficacy,"[6]; oral, 4 weeks, Table 5, FIG. 5, FIG. 6",high tumor growth inhibitory efficacy
same,cell death induction efficacy,SNU-C2A,no response
same,IC50,SW620,320 nM

# Source: patent publication US20230099204A1, “PHARMACEUTICAL COMPOSITION FOR PREVENTION OR TREATMENT OF CANCER IN WHICH KRAS MUTATION AND ACTIVATED RON ARE PRESENT” (WELLMARKER BIO CO., LTD., priority 2020, published 2023)
